Results published in ChEMBL document CHEMBL1201862, “PubChem BioAssay data set” (2004).
Activity calls are given as the source filed them.

Key:
Cytochrome P450 1A2 = molecular target: T1, Cytochrome P450 1A2 (Homo sapiens, UniProt P05177);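 note: PubChem cytochrome P450 panel assay, CYP1A2 panel member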
T1 sequence (P05177 whole entry): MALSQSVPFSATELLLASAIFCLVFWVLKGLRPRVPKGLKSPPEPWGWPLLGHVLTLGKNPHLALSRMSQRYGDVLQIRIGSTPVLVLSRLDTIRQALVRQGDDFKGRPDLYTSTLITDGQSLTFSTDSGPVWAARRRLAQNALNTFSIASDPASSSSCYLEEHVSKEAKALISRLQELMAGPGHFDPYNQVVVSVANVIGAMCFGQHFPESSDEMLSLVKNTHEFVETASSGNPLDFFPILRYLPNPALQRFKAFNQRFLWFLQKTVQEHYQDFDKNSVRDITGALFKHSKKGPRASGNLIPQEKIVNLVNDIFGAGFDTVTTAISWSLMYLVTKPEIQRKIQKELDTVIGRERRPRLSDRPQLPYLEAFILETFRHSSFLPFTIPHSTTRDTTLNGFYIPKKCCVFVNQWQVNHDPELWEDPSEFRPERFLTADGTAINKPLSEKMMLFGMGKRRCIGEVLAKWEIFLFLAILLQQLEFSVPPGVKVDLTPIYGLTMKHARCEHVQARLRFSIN

[1] = tested on: Streptococcus sp. 'group A'; assay: Streptococcus pyogenes SK(-)GAS viability under kanamycin – luminescence, BacTiterGlo, confirmation, counter-screen for streptokinase expression inhibitor project, dose response (AID 1900); assay type: functional, organism-based
Streptococcus = assay: GAS UMAA2166 growth inhibition – luminescence, BacTiterGlo, counter-screen for streptokinase expression inhibitor project, dose response (AID 1915); assay type: functional, organism-based;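 note: potency for reduction of bacterial viability or growth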
Cytochrome P450 2C9 = Cytochrome P450 2C9 (Homo sapiens, UniProt P11712)
Chain of Cytochrome P450 2C9 (P11712 whole entry): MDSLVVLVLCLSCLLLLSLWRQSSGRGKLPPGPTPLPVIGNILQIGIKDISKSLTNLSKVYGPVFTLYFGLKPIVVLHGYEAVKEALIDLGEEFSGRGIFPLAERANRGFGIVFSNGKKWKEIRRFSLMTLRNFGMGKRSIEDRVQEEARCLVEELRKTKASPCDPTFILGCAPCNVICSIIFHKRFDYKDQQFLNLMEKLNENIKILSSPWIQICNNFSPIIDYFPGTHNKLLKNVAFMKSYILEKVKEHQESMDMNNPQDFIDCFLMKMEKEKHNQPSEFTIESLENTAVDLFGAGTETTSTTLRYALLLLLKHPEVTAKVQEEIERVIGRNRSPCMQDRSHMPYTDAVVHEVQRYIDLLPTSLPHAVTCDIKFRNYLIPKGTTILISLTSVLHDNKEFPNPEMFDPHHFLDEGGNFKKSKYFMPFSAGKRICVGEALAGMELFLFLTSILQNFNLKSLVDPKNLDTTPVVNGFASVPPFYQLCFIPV

[2] = NIH3T3 cell viability loss – ATP luminescence, mouse fibroblasts, counter-screen, dose response (AID 2010); assay type: functional, cell-based;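 note: cells exposed to compound for about 90 hours before reading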
[3] = Trypanosoma cruzi growth suppression in host cells – NIH3T3 host cells, beta-gal luminescence, confirmation (AID 2044); assay type: functional, cell-based;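 note: intracellular parasites grown in NIH/3T3 mouse fibroblasts as host cells; luminescent beta-galactosidase reporter signal from transgenic T. cruzi replicating inside host cells; inhibitors lower the luminescence signal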
Streptokinase A = molecular target: T2, Streptokinase A (Streptococcus pyogenes serotype M1, UniProt P10520); assay: viability-normalized secreted streptokinase activity reduction – plasminogen activation absorbance, OD405, dose response (AID 1914); assay type: functional, Streptococcus pyogenes M1 GAS;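 note: secreted streptokinase activity via plasminogen activation per viability signal from cell pellet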
T2 sequence (P10520 whole entry): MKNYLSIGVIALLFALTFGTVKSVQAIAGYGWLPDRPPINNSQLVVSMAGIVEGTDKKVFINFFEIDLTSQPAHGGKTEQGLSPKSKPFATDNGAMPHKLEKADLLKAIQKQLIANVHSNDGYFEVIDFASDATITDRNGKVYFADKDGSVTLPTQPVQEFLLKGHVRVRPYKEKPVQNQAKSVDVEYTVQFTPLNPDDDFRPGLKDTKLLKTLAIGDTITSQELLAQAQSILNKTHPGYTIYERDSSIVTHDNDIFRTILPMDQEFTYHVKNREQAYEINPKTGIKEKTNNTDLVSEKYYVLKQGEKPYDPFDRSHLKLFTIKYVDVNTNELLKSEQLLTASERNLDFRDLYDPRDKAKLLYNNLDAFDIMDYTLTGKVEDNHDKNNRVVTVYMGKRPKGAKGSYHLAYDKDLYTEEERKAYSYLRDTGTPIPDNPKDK

Cytochrome P450 2C19 = Cytochrome P450 2C19 (Homo sapiens, UniProt P33261); assay: Cytochrome panel assay with activity outcomes. Panel member name: p450-cyp2c19 Compounds with AC50 equal or less than 10 uM are considered active; assay type: functional
Chain of Cytochrome P450 2C19 (P33261 whole entry): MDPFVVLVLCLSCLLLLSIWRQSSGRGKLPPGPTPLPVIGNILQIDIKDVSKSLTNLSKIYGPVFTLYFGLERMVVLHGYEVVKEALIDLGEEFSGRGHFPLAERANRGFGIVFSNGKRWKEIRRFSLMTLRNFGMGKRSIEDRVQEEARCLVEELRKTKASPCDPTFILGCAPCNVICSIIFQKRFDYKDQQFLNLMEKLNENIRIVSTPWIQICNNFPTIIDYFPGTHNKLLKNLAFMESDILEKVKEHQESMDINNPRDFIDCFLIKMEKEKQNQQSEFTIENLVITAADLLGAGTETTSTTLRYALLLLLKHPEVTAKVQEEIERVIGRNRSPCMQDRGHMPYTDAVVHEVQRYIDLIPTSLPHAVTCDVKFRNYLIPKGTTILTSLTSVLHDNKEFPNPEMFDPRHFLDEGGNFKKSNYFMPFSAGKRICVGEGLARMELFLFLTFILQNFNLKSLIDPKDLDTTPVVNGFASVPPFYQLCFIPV

COc1cccc(Cn2c(=O)c(C)nc3cnc(Oc4cccc(Cl)c4)nc32)c1
AC50 (Cytochrome P450 1A2): 25.1 µM (inconclusive)

Clc1ccc2c(c1)C=Nc1c(NCc3ccccc3)ncnc1O2
AC50 (Cytochrome P450 1A2): 0.631 µM (inconclusive)

Oc1ccc(Br)cc1/C=N/Nc1ncc(-c2ccccc2)cn1
EC50 [1]: 1.51 µM (active) | EC50 (Streptococcus): 2.68 µM (active)

COC(=O)c1[nH]c2cc(OC)ccc2c1NC(=O)CCN1CCSCC1
AC50 (Cytochrome P450 2C9): 22.4 µM (inconclusive)

CC1C(=O)C(C)C(c2ccc([N+](=O)[O-])cc2)NC1c1ccc([N+](=O)[O-])cc1 (stereo not given)
EC50 [2]: > 30 µM (not active) | EC50 [3]: 0.632 µM (active)

COc1cc(OC)cc(C(=O)NC(=S)N2CCN(c3ccc(C(F)(F)F)cc3[N+](=O)[O-])CC2)c1
EC50 (Streptokinase A): > 150 µM (not active) | EC50 [1]: 1.61 µM (active) | EC50 (Streptococcus): > 150 µM (not active)

COc1cc2c(cc1OC)CN(C(=O)COc1ccc(C)c(C)c1)CC2
EC50 [2]: > 60 µM (not active) | EC50 [3]: 2.93 µM (active)

COc1cc(-c2nnc(SCC3(c4ccc(Br)cc4)OCCO3)o2)cc(OC)c1OC
AC50 (Cytochrome P450 2C9): 39.8 µM (inconclusive)

Cc1ccccc1OCCn1cnc2cc([N+](=O)[O-])ccc2c1=O
EC50 [2]: > 30 µM (not active) | EC50 [3]: 0.615 µM (active)

CCn1cc(C(=O)OCC(=O)c2cc(C)n(-c3cccc(C(F)(F)F)c3)c2C)c(=O)c2ccc(C)nc21
EC50 (Streptokinase A): 21.6 µM (active) | EC50 [1]: 5.68 µM (active) | EC50 (Streptococcus): > 50 µM (not active)

O=C(NNC(=S)NC(=O)c1cccnc1)c1ccc(Cl)cc1
EC50 [1]: 5.07 µM (active) | EC50 (Streptococcus): 11.4 µM (active)

CCOC(=O)C1CCCN(C(=O)c2cc3nc(-c4ccc5c(c4)OCO5)cc(C(F)(F)F)n3n2)C1 (stereo not given)
AC50 (Cytochrome P450 1A2): 25.1 µM (inconclusive)

Cc1cc(N)n2ncc(-c3ccc(Cl)cc3)c2n1
AC50 (Cytochrome P450 2C9): 31.6 µM (inconclusive)

CC(C)N1CCN(Cc2ccc3c(c2)Cc2ccccc2-3)CC1CCO (stereo not given)
EC50 [2]: 7.87 µM (active) | EC50 [3]: 0.532 µM (active)

O=C(O)c1ccc(N/N=C/c2ccc(-c3ccc(Br)cc3)o2)cc1
EC50 [1]: 4.26 µM (active) | EC50 (Streptococcus): 3.02 µM (active)

O=C(O)CSCNC(=O)CC12CC3CC(CC(C3)C1)C2
AC50 (Cytochrome P450 2C19; read-out: AC50): 28.2 µM (inconclusive)

COC(=O)[C@@]1(Cc2ccc(F)cc2)[C@H]2c3cc(C(=O)N4CCCC4)n(Cc4ccc(Cl)c(C(F)(F)F)c4)c3C[C@H]2CN1C(=O)c1ccccc1
AC50 (Cytochrome P450 2C19; read-out: AC50): 31.6 µM (inconclusive)

COCCNc1nc(-c2cccc(OC)c2)nc2ccccc12
AC50 (Cytochrome P450 2C19; read-out: AC50): 31.6 µM (inconclusive)

COc1ccc(CNc2ccnc(-c3ccc(C(=O)N(C)C)cc3)n2)c(OC)c1
AC50 (Cytochrome P450 1A2): 12.6 µM (inconclusive) | AC50 (Cytochrome P450 2C19; read-out: AC50): 20 µM (inconclusive)

Cc1cccc(NC(=O)c2sc(Cl)nc2-c2ccccc2)c1
EC50 (Streptokinase A): > 150 µM (not active) | EC50 [1]: 5 µM (active) | EC50 (Streptococcus): 19.3 µM (active)

CNCCCCCCCCSc1nc(C(C)C)ccc1C(=O)c1cccs1
AC50 (Cytochrome P450 2C9): 25.1 µM (inconclusive)

CC(C)CNc1nc(N)nc(O)c1NC=O
AC50 (Cytochrome P450 2C19): inconclusive

CCC(=O)OCN1C(=O)C=CC1=O
AC50 (Cytochrome P450 2C19; read-out: AC50): 0.002 µM (inconclusive)

Cc1c(C(=O)OC(C)CCN(C)C)oc2ccccc12 (stereo not given)
EC50 [2]: > 30 µM (not active) | EC50 [3]: 0.574 µM (active)

O=C(NNc1ccccc1Cl)C(O)(c1cccc(C(F)(F)F)c1)c1cccc(C(F)(F)F)c1
EC50 (Streptokinase A): 3.16 µM (active) | EC50 [1]: 2.65 µM (active) | EC50 (Streptococcus): 17.4 µM (active)

Cc1nc2sccn2c(=O)c1Cl
AC50 (Cytochrome P450 1A2): 15.8 µM (inconclusive)

C=C1CCC2C(C)(C)[C@@H](O)CC[C@@]2(C)[C@@H]1COc1ccc2ccc(=O)oc2c1 (stereo not given in full)
EC50 (Streptokinase A): 6.72 µM (active) | EC50 [1]: 9.27 µM (active) | EC50 (Streptococcus): > 150 µM (not active)

O=C(NCCc1c[nH]c2ccccc12)[C@@H]1C[C@H]1[C@@H](NP(=O)(c1ccccc1)c1ccccc1)c1ccccc1
AC50 (Cytochrome P450 1A2): 15.8 µM (inconclusive)

O=C(NCC(c1cccs1)N1CCOCC1)c1ccco1 (stereo not given)
AC50 (Cytochrome P450 2C9): 22.4 µM (inconclusive)

COc1ccc(N/C=C2/Sc3ccccc3NC2=O)cc1
EC50 [2]: > 30 µM (not active) | EC50 [3]: 1.22 µM (active)

Cc1cc(Br)ccc1OCCN1CCCC1
EC50 [2]: 58.7 µM (active) | EC50 [3]: 0.651 µM (active)

Cc1cc(Cl)ccc1OCC(=O)N/N=C1\CCCc2ccccc21
AC50 (Cytochrome P450 1A2): 2.51 µM (inconclusive) | AC50 (Cytochrome P450 2C9): 3.55 µM (inconclusive)

CCCN(CCO)Cc1ccc(F)c(Br)c1
AC50 (Cytochrome P450 1A2): 15.8 µM (inconclusive) | AC50 (Cytochrome P450 2C9): 0.126 µM (inconclusive)

COCCn1c(C)cc(C2=NN=C(Nc3ccc(F)cc3)SC2)c1C
AC50 (Cytochrome P450 1A2): 11.2 µM (inconclusive)

CCc1ccc(Nc2n[n+](-c3ccccc3)c(-c3ccc(OCc4ccccc4)cc3)s2)cc1
EC50 [2]: > 30 µM (not active) | EC50 [3]: 2.01 µM (active)

CC1=CC(C)(C)Nc2ccc(CSc3ccccc3)cc21
AC50 (Cytochrome P450 1A2): 0.501 µM (inconclusive)

CC1CCN(CCCCOc2ccccc2[N+](=O)[O-])CC1
AC50 (Cytochrome P450 2C19; read-out: AC50): 15.8 µM (inconclusive)

Cc1[nH]c2ccc(F)cc2c1CCN(Cc1cccnc1)C(S)=NC(C)(C)C
EC50 [2]: > 60 µM (not active) | EC50 [3]: 0.577 µM (active)

O=C(Oc1cccc(Br)c1)c1cccnc1
AC50 (Cytochrome P450 2C9): 39.8 µM (inconclusive) | AC50 (Cytochrome P450 2C19; read-out: AC50): 39.8 µM (inconclusive)

CCn1ccnc1CN(C)Cc1cn(-c2ccc(C)cc2)nc1-c1cccc(C)c1
EC50 [2]: > 60 µM (not active) | EC50 [3]: 1.92 µM (active)

CC(=O)NC1(c2cccc(F)c2)CCN(CC(=O)NC(C)C)CC1
AC50 (Cytochrome P450 2C19; read-out: AC50): 39.8 µM (inconclusive)

COc1ccccc1Nc1nc(N)nc(CSC(=S)N2CCN(c3ccccc3)CC2)n1
EC50 [2]: > 60 µM (not active) | EC50 [3]: 2.57 µM (active)

CSc1ccccc1NC(=S)N/N=C/c1cccn1Cc1cccc(C)c1
EC50 [2]: > 60 µM (not active) | EC50 [3]: 2.35 µM (active)

COc1ccc(-c2nc3cnc(Nc4ccccc4)nc3n(CCC#N)c2=O)cc1
AC50 (Cytochrome P450 1A2): 0.501 µM (inconclusive)

C[N+](C)(CCCCCC[N+](C)(C)CCCN1C(=O)c2ccccc2C1=O)CCCN1C(=O)c2ccccc2C1=O
AC50 (Cytochrome P450 1A2): 31.6 µM (inconclusive) | AC50 (Cytochrome P450 2C19; read-out: AC50): 31.6 µM (inconclusive)

CC(CC(=O)O)(CC(=O)O)c1ccccc1
AC50 (Cytochrome P450 2C19): inconclusive

Cn1cccc1C(=O)N1CCC[C@@]2(CCN(C(c3ccccc3)c3ccccc3)C2)C1
AC50 (Cytochrome P450 2C9): 39.8 µM (inconclusive) | AC50 (Cytochrome P450 2C19; read-out: AC50): 25.1 µM (inconclusive)

Cc1cc(C)c(-c2csc(NC(=O)c3cc([N+](=O)[O-])ccc3N3CCOCC3)n2)c(C)c1
EC50 [2]: > 30 µM (not active) | EC50 [3]: 1.44 µM (active)

Cc1cc(N)n(-c2ccccc2)n1
AC50 (Cytochrome P450 1A2): 31.6 µM (inconclusive) | AC50 (Cytochrome P450 2C19; read-out: AC50): 2.24 µM (inconclusive)

FC(F)(F)c1cccc(NC(S)=NN=C(S)Nc2cccc(C(F)(F)F)c2)c1
EC50 [1]: 1.65 µM (active) | EC50 (Streptococcus): 4.04 µM (active)

CC(=O)Nc1ccc(NC(=O)CSc2nnc(-c3ccccc3)n2Cc2ccc3c(c2)OCO3)cc1
AC50 (Cytochrome P450 1A2): 31.6 µM (inconclusive)

Cc1cc(C)n2nc(C(=O)NCc3cccc(C(F)(F)F)c3)nc2n1
EC50 [2]: > 60 µM (inconclusive) | EC50 [3]: > 60 µM (not active)

CC(C)(CN1CCN(C(c2ccccc2)c2ccccc2)CC1)NS(=O)(=O)c1ccccc1
EC50 [2]: > 60 µM (not active) | EC50 [3]: 1.7 µM (active)

NC[C@@H](O)CSCc1ccc(Cl)cc1
AC50 (Cytochrome P450 2C19; read-out: AC50): 0.1 µM (inconclusive)
